Patent US11512090B2, “Muscarinic acetylcholine M1 receptor antagonists” (PIPELINE THERAPEUTICS, INC., priority 2018, dated 2022)
Where two headings read alike, the source gives them in different places.

How the values were obtained:
Format in all cases: cell-based
[1] = biological target: T1, M2 (Homo sapiens, UniProt P08172); experiment: In vitro functional assay of muscarinic acetylcholine receptor activity, M2
T1 sequence (P08172 1-466): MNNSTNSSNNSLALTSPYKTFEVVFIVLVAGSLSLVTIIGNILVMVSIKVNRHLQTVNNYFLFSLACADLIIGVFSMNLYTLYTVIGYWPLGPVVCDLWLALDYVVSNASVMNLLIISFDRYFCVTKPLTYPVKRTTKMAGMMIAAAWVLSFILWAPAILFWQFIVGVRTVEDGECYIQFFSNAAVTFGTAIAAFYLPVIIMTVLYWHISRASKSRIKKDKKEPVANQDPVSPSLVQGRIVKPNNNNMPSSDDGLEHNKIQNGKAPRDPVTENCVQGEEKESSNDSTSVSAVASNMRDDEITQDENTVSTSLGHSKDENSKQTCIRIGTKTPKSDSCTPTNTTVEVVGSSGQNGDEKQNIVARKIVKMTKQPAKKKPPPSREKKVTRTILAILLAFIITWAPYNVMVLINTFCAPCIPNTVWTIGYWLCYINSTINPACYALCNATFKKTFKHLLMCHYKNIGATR

[2] = biological target: T2, human M1 receptor (Homo sapiens, UniProt P11229); experiment: In vitro functional assay of muscarinic acetylcholine receptor activity (aequorin calcium flux, antagonist mode vs EC80 acetylcholine), M1
T2 sequence (P11229 1-460): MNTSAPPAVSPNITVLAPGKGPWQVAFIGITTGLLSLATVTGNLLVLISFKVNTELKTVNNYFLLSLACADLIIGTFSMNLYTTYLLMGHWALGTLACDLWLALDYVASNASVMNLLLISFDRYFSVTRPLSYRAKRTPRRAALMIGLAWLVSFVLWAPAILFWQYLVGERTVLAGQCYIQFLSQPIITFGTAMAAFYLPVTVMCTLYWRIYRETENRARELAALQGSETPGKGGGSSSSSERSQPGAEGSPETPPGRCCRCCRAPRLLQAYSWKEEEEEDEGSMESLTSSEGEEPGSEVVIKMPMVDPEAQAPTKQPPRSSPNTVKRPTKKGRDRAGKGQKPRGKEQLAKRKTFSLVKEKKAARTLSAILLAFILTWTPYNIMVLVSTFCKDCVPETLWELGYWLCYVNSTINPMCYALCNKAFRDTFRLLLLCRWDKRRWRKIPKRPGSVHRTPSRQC
Method in brief: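 Antagonism at M1 was measured as a concentration-dependent reduction of the EC80 acetylcholine-evoked aequorin luminescence, from which IC50 was derived. Human M1 CHO-K1 aequorin cells were first loaded with 5 uM coelenterazine h for 4 h and exposed to compound for 30 min at room temperature.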

[3] = biological target: M3 (Homo sapiens, UniProt P20309); experiment: In vitro functional assay of muscarinic acetylcholine receptor activity, M3
[4] = antagonist IC50 at M2, read-out: M2 IC50
[5] = CHO-K1 cells stably expressing human M1 receptor with Aequorin, decrease in EC80 acetylcholine response, read-out: M1 IC50
[6] = antagonist IC50 at M3, read-out: M3 IC50

Chain of M3 (P20309 whole entry): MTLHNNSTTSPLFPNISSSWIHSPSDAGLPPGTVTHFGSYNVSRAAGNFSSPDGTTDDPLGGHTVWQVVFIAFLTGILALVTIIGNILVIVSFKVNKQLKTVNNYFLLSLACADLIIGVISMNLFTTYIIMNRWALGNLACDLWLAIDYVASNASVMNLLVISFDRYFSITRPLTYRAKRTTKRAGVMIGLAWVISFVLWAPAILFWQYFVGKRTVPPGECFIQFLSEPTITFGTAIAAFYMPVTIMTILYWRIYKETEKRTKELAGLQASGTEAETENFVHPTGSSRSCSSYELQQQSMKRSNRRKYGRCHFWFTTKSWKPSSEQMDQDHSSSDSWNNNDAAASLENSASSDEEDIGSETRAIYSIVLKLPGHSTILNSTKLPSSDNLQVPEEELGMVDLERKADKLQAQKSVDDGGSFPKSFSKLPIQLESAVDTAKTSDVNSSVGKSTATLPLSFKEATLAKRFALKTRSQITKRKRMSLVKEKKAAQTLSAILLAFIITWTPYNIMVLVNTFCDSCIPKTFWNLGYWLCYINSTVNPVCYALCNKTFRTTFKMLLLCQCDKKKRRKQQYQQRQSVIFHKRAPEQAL

| IC50 [1, 4] | IC50 [2, 5] | IC50 [3, 6] | SMILES | IC50 [2] | IC50 [3] | IC50 [1] |
| --- | --- | --- | --- | --- | --- | --- |
| 1 to 10 µM | < 0.1 µM | 1 to 10 µM | N#Cc1ccc(N2CCN(C(=O)CCS(=O)(=O)c3cccc4ncsc34)CC2)nc1 [Example 111, 6-(4-(3-(benzo[d]thiazol-7-ylsulfonyl)propanoyl)piperazin-1-yl)nicotinonitrile] |  |  |  |
| > 10 µM | 1 to 10 µM | 1 to 10 µM | O=C(CCS(=O)(=O)c1cccc2ncsc12)N1CCN(c2ncc(C(F)(F)F)cn2)CC1 [Example 112, 3-(benzo[d]thiazol-7-ylsulfonyl)-1-(4-(5-(trifluoromethyl)pyrimidin-2-yl)piperazin-1-yl)propan-1-one] |  |  |  |
| 1 to 10 µM | 1 to 10 µM | > 10 µM | C[C@H]1CN(c2ccn3nccc3c2)CCN1C(=O)CCS(=O)(=O)c1cccc2ncsc12 [Example 113, (S)-3-(benzo[d]thiazol-7-ylsulfonyl)-1-(2-methyl-4-(pyrazolo[1,5-a]pyridin-5-yl)piperazin-1-yl)propan-1-one] |  |  |  |
| 1 to 10 µM | 0.1 to 1 µM | 1 to 10 µM | C[C@H]1CN(c2ccc(C#N)nc2)CCN1C(=O)CCS(=O)(=O)c1cccc2ncsc12 [Example 114, (S)-5-(4-(3-(benzo[d]thiazol-7-ylsulfonyl)propanoyl)-3-methylpiperazin-1-yl)picolinonitrile] |  |  |  |
| > 10 µM | > 10 µM | 1 to 10 µM | C[C@H]1CN(c2cnc(C(F)(F)F)nc2)CCN1C(=O)CCS(=O)(=O)c1cccc2ncsc12 [Example 115, (S)-3-(benzo[d]thiazol-7-ylsulfonyl)-1-(2-methyl-4-(2-(trifluoromethyl)pyrimidin-5-yl)piperazin-1-yl)propan-1-one] |  |  |  |
| 1 to 10 µM | 1 to 10 µM | 1 to 10 µM | C[C@H]1CN(c2cc(F)c(F)c(F)c2)CCN1C(=O)CCS(=O)(=O)c1cccc2ncsc12 [Example 116, (S)-3-(benzo[d]thiazol-7-ylsulfonyl)-1-(2-methyl-4-(3,4,5-trifluorophenyl)piperazin-1-yl)propan-1-one] |  |  |  |
| > 10 µM | 1 to 10 µM | > 10 µM | C[C@H]1CN(c2cc[nH]c(=O)c2)CCN1C(=O)CCS(=O)(=O)c1cccc2ncsc12 [Example 117, (S)-4-(4-(3-(benzo[d]thiazol-7-ylsulfonyl)propanoyl)-3-methylpiperazin-1-yl)pyridin-2(1H)-one] |  |  |  |
| 1 to 10 µM | 0.1 to 1 µM | 1 to 10 µM | C[C@H]1CN(c2ccc(C#N)cn2)CCN1C(=O)CCS(=O)(=O)c1cccc2ncsc12 [Example 120, 6-[(3S)-4-[3-(1,3-benzothiazole-7-sulfonyl)propanoyl]-3-methylpiperazin-1-yl]pyridine-3-carbonitrile] |  |  |  |
| > 10 µM | 1 to 10 µM | 1 to 10 µM | Cc1cc(Cl)cnc1N1CCN(C(=O)CCNCc2cccc3nccn23)[C@H](C)C1 [Example 123, 1-[(2R)-4-(5-chloro-3-methylpyridin-2-yl)-2-methylpiperazin-1-yl]-3-[({imidazo[1,2-a]pyridin-5-yl}methyl)amino]propan-1-one] |  |  |  |
| 0.1 to 1 µM | < 0.1 µM | 0.1 to 1 µM | Cc1cc(C#N)cnc1N1CCN(C(=O)CCS(=O)(=O)c2cccc3ncsc23)[C@@H](C)C1 [Example 124, 6-[(3S)-4-[3-(1,3-benzothiazole-7-sulfonyl)propanoyl]-3-methylpiperazin-1-yl]-5-methylpyridine-3-carbonitrile] |  |  |  |
| 0.1 to 1 µM | < 0.1 µM | 0.1 to 1 µM | N#Cc1ccc(N2CC3CCC2CN3C(=O)CCS(=O)(=O)c2cccc3ncsc23)nc1 (stereo not drawn) [Example 125, 6-{5-[3-(1,3-benzothiazole-7-sulfonyl)propanoyl]-2,5-diazabicyclo[2.2.2]octan-2-yl}pyridine-3-carbonitrile] |  |  |  |
| > 10 µM | 0.1 to 1 µM | > 10 µM | CC1CN(c2ccc(C#N)cn2)[C@H](C)CN1C(=O)CCS(=O)(=O)c1cccc2ncsc12 (stereo partly drawn) [Example 126, 6-[(2R)-4-[3-(1,3-benzothiazole-7-sulfonyl)propanoyl]-2,5-dimethylpiperazin-1-yl]pyridine-3-carbonitrile] |  |  |  |
| 0.1 to 1 µM | < 0.1 µM | 1 to 10 µM | Cc1cc(F)cnc1N1CC(C)N(C(=O)CCS(=O)(=O)c2cccc3ncsc23)C[C@H]1C (stereo partly drawn) [Example 127, 3-(1,3-benzothiazole-7-sulfonyl)-1-[(5R)-4-(5-fluoro-3-methylpyridin-2-yl)-2,5-dimethylpiperazin-1-yl]propan-1-one] |  |  |  |
| 1 to 10 µM | 0.1 to 1 µM | > 10 µM | N#Cc1ccc(N2CCN(C(=O)CCCc3cccc4ncoc34)CC2)nc1 [Example 129, 6-{4-[4-(1,3-benzoxazol-7-yl)butanoyl)piperazin-1-yl}pyridine-3-carbonitrile] |  |  |  |
| 0.1 to 1 µM | < 0.1 µM | 1 to 10 µM | Cc1cc(F)cnc1N1CC(C)N(C(=O)CCS(=O)(=O)c2cccc3ncsc23)C(C)C1 (stereo not drawn) [Example 135, 3-(1,3-benzothiazole-7-sulfonyl)-1-[4-(5-fluoro-3-methylpyridin-2-yl)-2,6-dimethylpiperazin-1-yl]propan-1-one] |  |  |  |
| > 10 µM | 1 to 10 µM | > 10 µM | Nc1cc(N2CCN(C(=O)CCS(=O)(=O)c3cccc4ncsc34)CC2)c(Cl)cn1 [Example 137, 1-[4-(2-amino-5-chloropyridin-4-yl)piperazin-1-yl]-3-(1,3-benzothiazole-7-sulfonyl)propan-1-one] |  |  |  |

| SMILES | IC50 [1, 4] | IC50 [2, 5] | IC50 [3, 6] | IC50 [2] | IC50 [3] | IC50 [1] |
| --- | --- | --- | --- | --- | --- | --- |
| O=C(CNCCc1cccn2nccc12)N1C[C@H]2CC[C@@H](C1)N2c1ccncc1F [Example 118, 1-((1R,5S)-8-(3-fluoropyridin-4-yl)-3,8-diazabicyclo[3.2.1]octan-3-yl)-2-((2-(pyrazolo[1,5-a]pyridin-4-yl)ethyl)amino)ethan-1-one] | > 10 µM | 1 to 10 µM | > 10 µM |  |  |  |
| O=C(CCS(=O)(=O)c1c(F)ccc2nccn12)N1CC2CCC(C1)N2c1ccc(F)cn1 [Example 121, 3-({6-fluoroimidazo[1,2-a]pyridin-5-yl}sulfonyl)-1-[8-(5-fluoropyridin-2-yl)-3,8-diazabicyclo[3.2.1]octan-3-yl]propan-1-one] | 0.1 to 1 µM |  | < 0.1 µM | < 0.1 µM |  |  |
| N#Cc1cc(N2C3CCC2CN(C(=O)CCS(=O)(=O)c2cccc4ncsc24)C3)ccc1F [Example 122, 5-{3-[3-(1,3-benzothiazole-7-sulfonyl)propanoyl]-3,8-diazabicyclo[3.2.1]octan-8-yl}-2-fluorobenzonitrile] | > 10 µM |  |  | < 0.1 µM | < 0.1 µM |  |
| N#Cc1cc(N2C3CCC2CN(C(=O)CCS(=O)(=O)c2cccc4nccn24)C3)ccc1F [Example 130, 2-fluoro-5-[3-(3-{imidazo[1,2-a]pyridine-5-sulfonyl}propanoyl)-3,8-diazabicyclo[3.2.1]octan-8-yl)benzonitrile] | 1 to 10 µM |  | > 10 µM | < 0.1 µM |  |  |
| N#Cc1cc(N2C3CCC2CN(C(=O)CCNCc2c(F)ccc4nccn24)C3)ccc1F [Example 131, 2-fluoro-5-(3-{3-[({6-fluoroimidazo[1,2-a]pyridin-5-yl}methyl)amino]propanoyl}-3,8-diazabicyclo[3.2.1]octan-8-yl)benzonitrile] | > 10 µM |  | > 10 µM | 0.1 to 1 µM |  |  |
| N#Cc1ccc(N2CC3CCC(C2)N3C(=O)CCS(=O)(=O)c2cccc3ncsc23)nc1 [Example 132, 6-{8-{3-(1,3-benzothiazole-7-sulfonyl)propanoyl]-3,8-diazabicyclo[3.2.1]octan-3-yl}pyridine-3-carbonitrile] |  |  | 1 to 10 µM | < 0.1 µM |  | 0.1 to 1 µM |
| N#Cc1ccc(N2C3COCC2CN(C(=O)CCS(=O)(=O)c2cccc4ncsc24)C3)nc1 [Example 133, 6-{7-[3-(1,3-benzothiazole-7-sulfonyl)propanoyl]-3-oxa-7,9-diazabicyclo[3.3.1]nonan-9-yl}pyridine-3-carbonitrile] |  |  | > 10 µM | < 0.1 µM |  | 0.1 to 1 µM |
| O=C(CCS(=O)(=O)c1cccc2nccn12)N1CC2CCC(C1)N2c1ccc(C(F)(F)F)cn1 [Example 136, 3-{imidazo[1,2-a]pyridine-5-sulfonyl}-1-{8-[5-(trifluoromethyl)pyridin-2-yl]-3,8-diazabicyclo[3.2.1]octan-3-yl}propan-1-one] | 1 to 10 µM |  | 1 to 10 µM | < 0.1 µM |  |  |
